Laboratory results taken from patent US11890348B2, “Localized delivery of anti-fugetactic agent for treatment of cancer” (THE GENERAL HOSPITAL CORPORATION, priority 2015, dated 2024).

Experiments:
human CD3+ T cells = test system: human CD3+ T cells
Method: Freshly prepared and purified human CD3^+ T cells were prepared from healthy donor peripheral blood. 20,000 T cells were loaded into the upper chamber of the Transwell in control, chemotactic or fugetactic settings with AMD3100 at concentrations between 0.1 μM and 10 μM. Migrated cells were counted in the lower chamber and migration quantitated as previously described. Vianello et al. The Journal of Immunology, 2006, 176: 2902-2914; Righi et al., Cancer Res.; 71(16): 5522-34, each of which is incorporated herein in its entirety.
All wells were run in triplicate.

human CD3 T cells = details: T cells incubated with 0.01 μM to 10 mM AMD3100 before addition to the chamber; harvest after 3 h
Method: For quantitative transmigration assays, purified human CD3′ T cells (approximately 2×10^4 cells) are added to the upper chamber of a Transwell®, insert in each well, to a total volume of 150 μl of Iscove's modified medium.
To determine the anti-fugetactic concentration of AMD3100, the T cells are incubated with 0.01 μM to 10 mM AMD3100 prior to addition to the chamber.
Cells are harvested from the lower chamber after 3 h, and cell counts are performed using a hemocytometer.

## c1cc(CN2CCCNCCNCCCNCC2)ccc1CN1CCCNCCNCCCNCC1 [AMD3100]
Human CD3+ T cells; FIG. 1, AMD3100 0.1 μM to 10 μM
  effect on human T cell chemotaxis: bimodal effect
Human CD3+ T cells; FIG. 2, AMD3100 0.1 μM to 10 μM, antifugetactic properties observed in a specific range
  effect on human T cell fugetaxis: bimodal effect
Human CD3+ T cells; chemotactic setting, AMD3100 at 1 μM, CI of 1.0 is the control, FIG. 1, triplicate wells
  chemotactic index (CI), chemotactic response: 2.3
Human CD3+ T cells; fugetactic setting, AMD3100 at 0.1 μM, CI of 1.0 is the control, FIG. 2, triplicate wells
  chemotactic index (CI), fugetactic response: 1.6
Human CD3 T cells
  effect on T cell migration (anti-fugetactic at lower, fugetactic at higher concentrations): bimodal effect
